The assay relates to NCI-H322M multicellular tumor spheroids, viability (% test/control). The assay is described as follows: Anticancer human tumor NCI-H322M cell line growth inhibition.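 As to viability, T/C: spheroids exposed to compound for seven days before readout; 100% = DMSO vehicle control wells.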 The conditions noted are these: for viability, T/C: stronger effect = lower value. Put shortly: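 Complex tumor spheroids combined malignant cells with endothelial cells and mesenchymal stem cells. DNA-damaging drugs and DNA repair inhibitors were tested alone and in combination, at half-log dilutions down from clinical Cmax (top 10 microM if Cmax unknown), 0.25% DMSO final.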

Values joined by “and” are separate entries in the source; they are usually repeats but may differ in a detail not shown here. Equal values may be shown once. Where only a bound is given, the exact number is not on record here.

Usually IC50 stands for the concentration at which inhibition is half-maximal. The viability, T/C is the ratio of treated to control. On to `Cc1cc(C)c(CNC(=O)c2cc(-c3ccc(CN4CCOCC4)cc3)cc3c2cnn3C2CCCC2)c(=O)[nH]1` + Cn1nnc2c(C(N)=O)ncn2c1=O, for which the 50% inhibitory concentration (IC50) (curve of first compound, second compound 1 µM) was more than 10 µM; the concentration for half-maximal inhibition (IC50) (curve of first compound, second compound 3.16 µM) was more than 10 µM; the half-inhibitory concentration (IC50) (curve of first compound, second compound 10 µM) was more than 10 µM; the 50% inhibitory concentration (IC50) (curve of first compound, second compound 31.6 µM) is more than 10 µM; the IC50 (curve of first compound, second compound 100 µM) was more than 10 µM. The viability, T/C (second compound 1 µM, first compound 0.0316 µM) is 99.7%; the viability, T/C (second compound 1 µM, first compound 0.1 µM) is 101%; the viability, T/C (second compound 1 µM, first compound 0.316 µM) is 98.5%; the viability, T/C (second compound 1 µM, first compound 1 µM) was 94.3%; the viability, T/C (second compound 1 µM, first compound 3.16 µM) was 133%; the viability, T/C (second compound 1 µM, first compound 10 µM) is 95.5%. Moreover, the viability, T/C is, setting by setting: (second compound 3.16 µM, first compound 0.0316 µM) 78%; (second compound 3.16 µM, first compound 0.1 µM) 102%; (second compound 3.16 µM, first compound 0.316 µM) 103%; (second compound 3.16 µM, first compound 1 µM) 81.3%; (second compound 3.16 µM, first compound 3.16 µM) 107%; (second compound 3.16 µM, first compound 10 µM) 118%. Further, the viability, T/C (second compound 10 µM, first compound 0.0316 µM) was 92.2%; the viability, T/C (second compound 10 µM, first compound 0.1 µM) is 94.3%; the viability, T/C (second compound 10 µM, first compound 0.316 µM) was 105%; the viability, T/C (second compound 10 µM, first compound 1 µM) is 106%; the viability, T/C (second compound 10 µM, first compound 3.16 µM) was 101%; the viability, T/C (second compound 10 µM, first compound 10 µM) was 119%. Further, the viability, T/C is, setting by setting: (second compound 31.6 µM, first compound 0.0316 µM) 101%; (second compound 31.6 µM, first compound 0.1 µM) 95%; (second compound 31.6 µM, first compound 0.316 µM) 103%; (second compound 31.6 µM, first compound 1 µM) 104%; (second compound 31.6 µM, first compound 3.16 µM) 104%; (second compound 31.6 µM, first compound 10 µM) 122%. Moreover, the viability, T/C is 105% (second compound 100 µM, first compound 0.0316 µM); 100% (second compound 100 µM, first compound 0.1 µM); 113% (second compound 100 µM, first compound 0.316 µM); 96.8% (second compound 100 µM, first compound 1 µM); 105% (second compound 100 µM, first compound 3.16 µM); 123% (second compound 100 µM, first compound 10 µM).

`COc1ccc([C@@H](O)c2cc(-c3ncnc4cc(N5CCOCC5)ccc34)c(F)cc2Cl)nn1`: the viability, T/C by setting is: (compound 0.0316 µM) 94.5% and 86.9% and 89%; (compound 0.1 µM) 82% and 74.6% and 84.6%; (compound 0.316 µM) 79.5% and 68% and 94.4%; (compound 1 µM) 61.6% and 63.9% and 62.2%; (compound 3.16 µM) 38.2% and 58.7% and 52.9%; (compound 10 µM) 33.5% and 34.7% and 43.3%. Also, the IC50 (curve of compound) was 1.82 µM and 3.81 µM and 2.7 µM.

With `CC(C)n1c(=O)n(C)c2cnc3cc(F)c(-c4ccc(OCCCN5CCCCC5)nc4)cc3c21` + CC[C@@]1(O)C(=O)OCc2c1cc1n(c2=O)Cc2cc3c(CN(C)C)c(O)ccc3nc2-1, the IC50 (curve of first compound, second compound 0.003 µM) is more than 10 µM; the IC50 (curve of first compound, second compound 0.00949 µM) is more than 10 µM; the half-maximal inhibitory concentration (IC50) (curve of first compound, second compound 0.03 µM) is more than 10 µM; the half-maximal inhibitory concentration (IC50) (curve of first compound, second compound 0.0949 µM) was more than 10 µM; the IC50 (curve of first compound, second compound 0.3 µM) was more than 10 µM. In addition, the viability, T/C reads like this: (second compound 0.003 µM, first compound 0.0316 µM) 73.3%; (second compound 0.003 µM, first compound 0.1 µM) 81.4%; (second compound 0.003 µM, first compound 0.316 µM) 80%; (second compound 0.003 µM, first compound 1 µM) 75.9%; (second compound 0.003 µM, first compound 3.16 µM) 77.4%; (second compound 0.003 µM, first compound 10 µM) 73.2%. Moreover, the viability, T/C is 73.2% (second compound 0.00949 µM, first compound 0.0316 µM); 72.8% (second compound 0.00949 µM, first compound 0.1 µM); 77.3% (second compound 0.00949 µM, first compound 0.316 µM); 75.3% (second compound 0.00949 µM, first compound 1 µM); 85.1% (second compound 0.00949 µM, first compound 3.16 µM); 71.4% (second compound 0.00949 µM, first compound 10 µM). The viability, T/C (second compound 0.03 µM, first compound 0.0316 µM) was 67.2%; the viability, T/C (second compound 0.03 µM, first compound 0.1 µM) was 73.8%; the viability, T/C (second compound 0.03 µM, first compound 0.316 µM) is 65.3%; the viability, T/C (second compound 0.03 µM, first compound 1 µM) was 72.5%; the viability, T/C (second compound 0.03 µM, first compound 3.16 µM) is 73%; the viability, T/C (second compound 0.03 µM, first compound 10 µM) was 70.2%. The viability, T/C is 58.8% (second compound 0.0949 µM, first compound 0.0316 µM); 56.5% (second compound 0.0949 µM, first compound 0.1 µM); 69.3% (second compound 0.0949 µM, first compound 0.316 µM); 65.2% (second compound 0.0949 µM, first compound 1 µM); 67.2% (second compound 0.0949 µM, first compound 3.16 µM); 68.6% (second compound 0.0949 µM, first compound 10 µM). The viability, T/C is, setting by setting: (second compound 0.3 µM, first compound 0.0316 µM) 53.3%; (second compound 0.3 µM, first compound 0.1 µM) 50.3%; (second compound 0.3 µM, first compound 0.316 µM) 54.7%; (second compound 0.3 µM, first compound 1 µM) 62.6%; (second compound 0.3 µM, first compound 3.16 µM) 61.6%; (second compound 0.3 µM, first compound 10 µM) 55%.

Turning to `O=C(c1cc(Cc2n[nH]c(=O)c3ccccc23)ccc1F)N1CCN(C(=O)C2CC2)CC1`, the viability, T/C runs as follows: (compound 0.0949 µM) 107% and 88% and 75.1%; (compound 0.3 µM) 98.5% and 83.7% and 107%; (compound 0.949 µM) 118% and 98.6% and 101%; (compound 3 µM) 97.2% and 80.6% and 97.6%; (compound 9.49 µM) 97% and 89.6% and 92.4%; (compound 30 µM) 103% and 87% and 104%. For the same compound, the IC50 (curve of compound) was more than 30 µM.

Values taken from PubChem BioAssay AID1845211 (Molecular Pharmacology Branch, DTP, NCI, 2023).
